Marks after values point to notes of the source that are not given here. Starred links: 1 amine or outer side, 2 acyl side, 3 side chain; linkers in the order of their positions; H or OH if unused. Non-standard residues stand in square brackets, D forms with d. Residues, ends and D or L forms follow the SMILES beside them. No end group written: not given here. X3 = N[C@@H](Cc1ccccc1)CN(CC(=O)[*:2])[*:1]
Legend:
NOP receptor = experiment: NOP bias factor, G protein vs β-arrestin 2 (Black–Leff operational model); conditions: for BIAS FACTOR: supplementary CSV (molecular formula strings), repeats Tables 1–7 without confidence limits; for bias factor (CL95%), NOP: ΔΔlog(τ/KA) G protein minus β-arrestin 2, N/OFQ(1–13)-NH2 as standard unbiased ligand, positive = toward G protein, mean of at least five experiments
From the text: The concentration–response curves of each compound were fitted to the Black–Leff operational model, described by Nagi and Pineyro[70] [drawing 3] where [A] is the agonist concentration, the maximal response of the system is given by Em, n is a fitting parameter for the slope, the affinity of the agonist is represented by the equilibrium dissociation constant of the agonist–receptor complex (KA), and the efficacy of the agonist is defined by τ. τ and KA are descriptive parameters of intrinsic efficacy and binding affinity and may be directly obtained by fitting the experimental data to the operational equation and can be expressed as “transduction coefficients” log(τ/KA). The relative efficiency of agonists producing activation of any pathways can thus be quantified with a “normalized” transduction coefficient, namely Δlog(τ/KA). Finally, the bias factors were calculated as difference between Δlog(τ/KA) values for a given agonist between the pathways (G protein and β-arrestin 2) [drawing 4]
Bias factors are expressed as the mean of at least five independent experiments, and CL95% are indicated. Biased factor is considered to be statistically different from 0 when 0 is not included in CL95%. α values have been statistically analyzed with one-way analysis of variance (ANOVA) followed by the Dunnett post hoc test for multiple comparisons; P values less than 0.05 were considered to be statistically significant.

[1] = molecular target: T1, NOP receptor (NOP-RLuc/β-arrestin 2-RGFP) (Homo sapiens, UniProt P41146); experiment: NOP/β-arrestin 2 interaction, BRET assay in whole cells; assay type: cell-based; conditions: for NOP/β-arrestin 2 α ± sem (intrinsic activity): Emax of ligand / Emax of N/OFQ(1–13)-NH2, mean ± sem of five experiments in duplicate; for NOP/β-arrestin 2 pEC50 (CL95%): BRET, whole HEK293 cells co-expressing NOP-RLuc/β-arrestin 2-RGFP, 100,000 cells/well, room temperature, mean of five independent experiments in duplicate, 95% confidence limits
T1 construct: expressed in transfected cells; host or cells: HEK293 (whole cells)
T1 sequence (P41146 whole entry): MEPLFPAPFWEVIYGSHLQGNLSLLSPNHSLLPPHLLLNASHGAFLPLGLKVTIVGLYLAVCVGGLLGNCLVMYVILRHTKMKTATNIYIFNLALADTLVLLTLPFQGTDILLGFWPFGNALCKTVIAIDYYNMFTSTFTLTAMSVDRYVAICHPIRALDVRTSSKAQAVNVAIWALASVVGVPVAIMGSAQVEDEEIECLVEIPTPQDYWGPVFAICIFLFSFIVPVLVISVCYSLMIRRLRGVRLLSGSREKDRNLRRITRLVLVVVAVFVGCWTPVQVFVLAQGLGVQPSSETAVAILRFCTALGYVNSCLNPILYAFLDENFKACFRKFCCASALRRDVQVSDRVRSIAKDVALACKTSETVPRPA
Description: (§1) For this study, human embryonic kidney (HEK293) cells, permanently co-expressing the different pairs of fusion proteins NOP-RLuc/Gβ1-RGFP and NOP-RLuc/β-arrestin 2-RGFP, and SH-SY5Y cells stably, co-expressing the different pairs of fusion proteins mu-RLuc/Gβ1-RGFP and mu-RLuc/β-arrestin 2-RGFP or delta-RLuc/Gβ1-RGFP and delta-RLuc/β-arrestin 2-RGFP, were used. Cells were prepared and cultured, as described previously.[19],[23] Cells were grown in Dulbecco’s modified Eagle’s medium (DMEM)/HAMS F12 (1:1) supplemented with 10% fetal bovine serum, penicillin G (100 units/mL), streptomycin (100 μg mL^–1), L-glutamine (2 mM), fungizone (1 μg mL^–1), geneticin (G418; 200 μg mL^–1), and hygromycin B (100 μg mL^–1) in a humidified atmosphere of 5% CO2 at 37 °C. For G protein experiments, enriched plasma membrane aliquots from transfected cells were prepared by differential centrifugation; cells were detached with phosphate buffered saline (PBS)/EDTA solution (1 mM, pH 7.4 NaOH), then, after 5 min 500g centrifugation, Dounce-homogenized (30 strokes) in cold homogenization buffer (tris(hydroxymethyl)aminomethane 5 mM, EGTA 1 mM, DTT 1 mM, pH 7.4 HCl) in the presence of sucrose (0.32 M). Three following centrifugations were performed at 10 min 1000g (4 °C), and the supernatants were kept. Two 20 min 24,000g (4 °C) subsequent centrifugations (the second in the absence of sucrose) were performed for separating enriched membranes that, after discarding the supernatant, were kept in ultrapure water at −80 °C.[67] The protein concentration in membrane preparations was determined using the QPRO-BCA kit (Cyanagen Srl, Bologna, IT) and the Ensight (PerkinElmer, Waltham, USA) in the spectrophotometer mode.
(§2) Luminescence in membranes was recorded in 96-well untreated white opaque microplates, while in whole cells, it was recorded in 96-well sterile poly-D-lysine-coated white opaque microplates (PerkinElmer, Waltham, MA, USA) using the luminometer Victor 2030 (PerkinElmer, Waltham, MA, USA). For the determination of receptor/G protein interactions, membranes (3 μg of protein) prepared from cells co-expressing NOP (or mu or delta)/RLuc and Gβ1/RGFP were added to wells in DPBS. For the determination of receptor/β-arrestin 2 interactions, cells co-expressing NOP (or mu or delta)/RLuc and β-arrestin 2/RGFP were plated 24 h before the experiment in poly-D-lysine-treated plates (100,000 cells/well). The cells were prepared for the experiment substituting the medium with PBS with MgCl2 (0.5 mM) and CaCl2 (0.9 mM). Coelenterazine at a final concentration of 5 μM was injected 15 min prior to reading the cell plate. Different concentrations of ligands in 20 μL of PBS–BSA 0.01% were added and incubated 5 min before reading luminescence. […] The BRET ratio was measured 15 min after agonist injection. All experiments were performed at room temperature.
(§3) The pharmacological terminology adopted in this paper is consistent with IUPHAR recommendations.[68] All data are expressed as the mean ± sem of five independent experiments made in duplicate. […] Ligand efficacy was expressed as intrinsic activity (α), calculated as the ratio between the Emax of the ligand and that of the standard agonist. Count per second (CPS) measured for the RGFP and RLuc light emitted using 510(10) and 460(25) filters (PerkinElmer, Waltham, MA), respectively, was used to calculate the BRET ratio. All data are expressed as the stimulated BRET ratio, that is, the ratio between CPS from RGFP and RLuc in the presence of ligands minus the BRET ratio in vehicle-treated wells. […] Concentration–response curves to agonists were fitted to the classical four-parameter logistic nonlinear regression model [drawing 1]
(§4) Curves fitting were performed using PRISM 6.0 (GraphPad Software In., San Diego, USA).

[2] = molecular target: T2, NOP receptor (NOP-RLuc/Gβ1-RGFP) (Homo sapiens, UniProt P41146); experiment: NOP/G protein interaction, BRET assay in membranes; assay type: biochemical; conditions: for NOP/G protein pEC50 (CL95%): BRET, membranes (3 μg protein) from HEK293 cells co-expressing NOP-RLuc/Gβ1-RGFP, room temperature, mean of five independent experiments in duplicate, 95% confidence limits; for NOP/G protein CR (concentration ratio): ratio between EC50 of the ligand and that of the standard agonist N/OFQ(1–13)-NH2
T2 construct: expressed in transfected cells; host or cells: HEK293 (enriched plasma membranes)
T2 sequence (P41146 whole entry): as above
Description: as §1, §2, §3, §4

| Compound | BIAS FACTOR (NOP receptor) | bias factor (CL95%), NOP (NOP receptor) | NOP/β-arrestin 2 pEC50 (CL95%) [1] | other results |
| --- | --- | --- | --- | --- |
| C[C@H](NC(=O)[C@H](CO)NC(=O)[C@H](CCCCN)NC(=O)[C@H](CCCNC(=N)N)NC(=O)[C@@H](C)NC(=O)CNC(=O)[C@@H](NC(=O)[C@H](Cc1ccccc1)NC(=O)CNC(=O)CNC(=O)[C@@H](N)Cc1ccccc1)[C@@H](C)O)C(=O)N[C@@H](CCCNC(=N)N)C(=O)N[C@@H](CCCCN)C(N)=O [Compound 15, [DAla^7]N/OFQ(1–13)-NH2] | 0.21 | 0.21 (−0.28–0.70) |  |  |
| C[C@H](NC(=O)CNC(=O)[C@@H](NC(=O)[C@H](Cc1ccccc1)NC(=O)CNC(=O)CNC(=O)[C@@H](N)Cc1ccccc1)[C@@H](C)O)C(=O)N[C@H](CCCNC(=N)N)C(=O)N[C@@H](CCCCN)C(=O)N[C@@H](CO)C(=O)N[C@@H](C)C(=O)N[C@@H](CCCNC(=N)N)C(=O)N[C@@H](CCCCN)C(N)=O [Compound 16, [DArg^8]N/OFQ(1–13)-NH2] |  | 0.26 (−0.25–0.77) |  |  |
| C[C@H](NC(=O)CNC(=O)[C@@H](NC(=O)[C@H](Cc1ccccc1)NC(=O)CNC(=O)CNC(=O)[C@@H](N)Cc1ccccc1)[C@@H](C)O)C(=O)N[C@@H](CCCNC(=N)N)C(=O)N[C@@H](CCCCN)C(=O)N[C@H](CO)C(=O)N[C@@H](C)C(=O)N[C@@H](CCCNC(=N)N)C(=O)N[C@@H](CCCCN)C(N)=O [Compound 18, [DSer^10]N/OFQ(1–13)-NH2] | -0.07 | –0.07 (−0.52–0.39) |  |  |
| C[C@H](NC(=O)CNC(=O)[C@@H](NC(=O)[C@H](Cc1ccccc1)NC(=O)CNC(=O)CNC(=O)[C@@H](N)Cc1ccccc1)[C@@H](C)O)C(=O)N[C@@H](CCCNC(=N)N)C(=O)N[C@@H](CCCCN)C(=O)N[C@@H](CO)C(=O)N[C@H](C)C(=O)N[C@@H](CCCNC(=N)N)C(=O)N[C@@H](CCCCN)C(N)=O [Compound 19, [DAla^11]N/OFQ(1–13)-NH2] | 0.14 | 0.14 (−0.31–0.60) |  |  |
| C[C@H](NC(=O)CNC(=O)[C@@H](NC(=O)[C@H](Cc1ccccc1)NC(=O)CNC(=O)CNC(=O)[C@@H](N)Cc1ccccc1)[C@@H](C)O)C(=O)N[C@@H](CCCNC(=N)N)C(=O)N[C@@H](CCCCN)C(=O)N[C@@H](CO)C(=O)N[C@@H](C)C(=O)N[C@H](CCCNC(=N)N)C(=O)N[C@@H](CCCCN)C(N)=O [Compound 20, [DArg^12]N/OFQ(1–13)-NH2] |  | 0.26 (−0.19–0.71) |  |  |
| C[C@H](NC(=O)CNC(=O)[C@@H](NC(=O)[C@H](Cc1ccccc1)NC(=O)CNC(=O)CNC(=O)[C@@H](N)Cc1ccccc1)[C@@H](C)O)C(=O)N[C@@H](CCCNC(=N)N)C(=O)N[C@@H](CCCCN)C(=O)N[C@@H](CO)C(=O)N[C@@H](C)C(=O)N[C@@H](CCCNC(=N)N)C(=O)N[C@H](CCCCN)C(N)=O [Compound 21, [DLys^13]N/OFQ(1–13)-NH2] | 0.03 | 0.03 (−0.42–0.48) |  |  |
| C[C@H](NC(=O)CNC(=O)[C@@H](NC(=O)[C@H](Cc1ccccc1)NC(=O)CNC(=O)CNC(=O)[C@@H](N)CC1CCCCC1)[C@@H](C)O)C(=O)N[C@@H](CCCNC(=N)N)C(=O)N[C@@H](CCCCN)C(=O)N[C@@H](CO)C(=O)N[C@@H](C)C(=O)N[C@@H](CCCNC(=N)N)C(=O)N[C@@H](CCCCN)C(N)=O [Compound 22, [Cha^1]N/OFQ(1–13)-NH2] | 0.20 | 0.20 (−0.36–0.76) |  | NOP/β-arrestin 2 α ± sem (intrinsic activity) [1]: 1.03 ± 0.05 |
| C[C@H](NC(=O)CNC(=O)[C@@H](NC(=O)[C@H](Cc1ccccc1)NC(=O)CNC(=O)CNC[C@@H](N)Cc1ccccc1)[C@@H](C)O)C(=O)N[C@@H](CCCNC(=N)N)C(=O)N[C@@H](CCCCN)C(=O)N[C@@H](CO)C(=O)N[C@@H](C)C(=O)N[C@@H](CCCNC(=N)N)C(=O)N[C@@H](CCCCN)C(N)=O [Compound 30, [Phe^1ψ(CH2–NH)Gly^2]N/OFQ(1–13)-NH2] (H-[X3]GFTGARKSARK-NH2) |  |  | Inactive |  |
| FAGFTGARKSARK-NH2 [Compound 2, [Ala^2]N/OFQ(1–13)-NH2] |  |  | inactive | NOP/G protein pEC50 (CL95%) [2]: 6.36 (5.89–6.83); NOP/G protein α ± sem (intrinsic activity) ([2]; Emax of ligand / Emax of N/OFQ(1–13)-NH2, mean ± sem of five experiments in duplicate): 0.54 ± 0.07 ^a; NOP/G protein CR (concentration ratio) [2]: 275 |
| FGGWTGARKSARK-NH2 [Compound 24, [Trp^4]N/OFQ(1–13)-NH2] | 0.11 | 0.11 (−0.43–0.65) |  | NOP/β-arrestin 2 α ± sem (intrinsic activity) [1]: 0.77 ± 0.03 ^a |
| [AC3C^7]N/OFQ-NH2 [Compound 36] | 0.40 | 0.40 (−0.11–0.90) |  |  |
| [AC5C^7]N/OFQ-NH2 [Compound 37] | 0.08 | 0.08 (−0.41–0.58) |  |  |
| [AC5C^11]N/OFQ-NH2 [Compound 38] | 0.31 | 0.31 (−0.19–0.81) |  |  |
| [Aib^11]N/OFQ-NH2 [Compound 35] | 0.29 | 0.29 (−0.20–0.79) |  |  |
| [Ala^1]N/OFQ(1–13)-NH2 (AGGFTGARKSARK-NH2) [Compound 1] |  |  | inactive | NOP/G protein pEC50 (CL95%) [2]: Crc incomplete; NOP/G protein CR (concentration ratio) [2]: ∼700 |
| [Ala^4]N/OFQ(1–13)-NH2 (FGGATGARKSARK-NH2) [Compound 4] |  |  | inactive | NOP/G protein pEC50 (CL95%) [2]: Crc incomplete; NOP/G protein CR (concentration ratio) [2]: ∼1000 |
| [Ala^8]N/OFQ(1–13)-NH2 (FGGFTGAAKSARK-NH2) [Compound 7] |  |  | inactive | NOP/G protein pEC50 (CL95%) [2]: Crc incomplete; NOP/G protein CR (concentration ratio) [2]: ∼1000 |
| [Cys(X)^14]N/OFQ(1-14)-NH2 [Compound 49] (chain 1 FGGFTGARKSARKC; chain 2 KKKKKK) [(Lys)6 moiety] |  |  | 8.22 (8.03-8.40) | NOP/G protein pEC50 (CL95%) [2]: 10.06 (9.79-10.34) |
